Measured values from US20220242958A1, “BISPECIFIC NANOBODIES” (Ablynx N.V., priority 2013, published 2022).

Columns and labels:
[1] = system: dual-tropic (R5/X4) HIV-1 HE strain; assay: HIV infection assay, MT-4 cells + HIV-1 HE; assay type: cell-based; settings: Human immunodeficiency virus 1, MT4
From the text: (§1) Viral strains used were the X4 HIV-1 clone NL4.3, R5 HIV-1 strain BaL, or the R5/X4 HIV-1 HE strain. Infection was done in MT-4 cells or phytohemagglutin-stimulated PBMCs from different healthy donors. The CXCR4-using (X4) HIV-1 clone NL4.3 was obtained from the National Institutes of Health NIAID AIDS Reagent program (Bethesda, Md.), the CCR5-using (R5) HIV-1 strain BaL was obtained from the Medical Research Council AIDS reagent project (Herts, UK). The dual-tropic (R5/X4) HIV-1 HE strain was initially isolated from a patient at the University Hospital in Leuven. The MT-4 cells were seeded out in 96-well plate and the U87 cells in 24-well plates. Nanobodies were added at different concentrations together with HIV-1 and the plates were maintained at 37° C. in 10% CO2. Cytopathic effect induced by the virus was monitored by daily microscopic evaluation of the virus-infected cell cultures. […] The absorbance was measured spectrophotometrically at 490 nm with a 96-well plate reader (Molecular Devices, Sunnyvale, Calif.) and compared with four cell control replicates (cells without virus and drugs) and four virus control wells (virus-infected cells without drugs). The IC50, i.e., the drug concentration that inhibits HIV-induced cell death by 50%, was calculated for each polypeptide from the dose-response curve. […]

[2] = system: X4 HIV-1 clone NL4.3 (PBMCs); assay: microbe, parasite or virus in culture; assay type: cell-based; settings: Human immunodeficiency virus 1, PBMC, read-out: IC50 (nM) PBMC + NL 4.3(X4)
[3] = system: X4 HIV-1 clone NL4.3 (U87 cells); assay: HIV-1 infection assay, U87 cells + NL4.3; assay type: cell-based; settings: Human immunodeficiency virus 1, U-87 MG; n = 3; read-out: IC50 (nM) U87 + NL 4.3 (X4)
[4] = system: HIV-1 NL4.3 AMD-3100 res. variant; assay type: cell-based; settings: versus wild-type NL4.3
[5] = system: HIV-2 ROD; assay: HIV infection assay, MT-4 cells + HIV-2 ROD; assay type: cell-based; settings: Human immunodeficiency virus 2, MT4
From the text: as §1

[6] = target: T1, hEGFR ECD (Homo sapiens, UniProt P00533); assay: SPR (Biacore T100) on hEGFR extracellular domain; assay type: binding
T1 construct: directly immobilized hEGFR extracellular domain (Sino Biological, #10001-H08H); purchased Sino Biological 10001-H08H

Compound	IC50 [1]	IC50 [2]	IC50 [3]	loss in potency towards AMD3100 resistant virus [4]	IC50 [5]	hEGFR ECD ka [6]	hEGFR ECD kd [6]
c1cc(CN2CCCNCCNCCCNCC2)ccc1CN1CCCNCCNCCCNCC1 [AMD3100, reference compound]	3.9 nM	1.91 nM	10 nM	~100 fold	21.1 nM	–	–
EGFR#11: EGFR Nanobody variant 7C12 (A1E, Q108L)	–	–	–	–	–	220000 M⁻¹ s⁻¹	0.037 s⁻¹
EGFR#32: EGFR Nanobody variant 7C12(A1E, E100fS, Q108L)	–	–	–	–	–	270000 M⁻¹ s⁻¹	0.23 s⁻¹
